# Reference: PubChem BioAssay (NCI)
#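 Where inhibition never reached the appropriate level, the endpoint shown equals the highest concentration tested. Otherwise, values were interpolated linearly from a five-concentration, 48-hour dose response in 96-well plates. GI50 = concentration required for 50% inhibition of growth. Definition used: TGI = concentration required for complete inhibition of growth.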
# How the values were obtained:
# Test in all cases: NCI tumour cell line growth inhibition, 48 h
# [1] = test system: RXF 393 renal
# [2] = test system: SW-620 colon
# [3] = test system: IGROV1 ovarian
# [4] = test system: LOX IMVI melanoma
# [5] = test system: ACHN renal
# [6] = test system: NCI-H460 lung
# [7] = test system: NCI-H522 lung
# [8] = test system: MDA-MB-435
# [9] = test system: A549 NSCLC
# [10] = test system: SK-MEL-5 melanoma
# [11] = test system: OVCAR-8 ovarian
# [12] = test system: UACC-62 melanoma
# [13] = test system: KM12 colon
# [14] = test system: SF-268 CNS
# [15] = test system: MDA-MB-231 breast
# [16] = test system: HL-60(TB) leukemia
# [17] = test system: SNB-19 CNS
# [18] = test system: BT-549 breast
# [19] = test system: A498 renal
# [20] = test system: OVCAR-3 ovarian
# [21] = test system: HOP-62 NSCLC
# [22] = test system: UO-31 renal
# [23] = test system: CAKI-1 renal
# [24] = test system: SK-MEL-28 melanoma
# [25] = test system: COLO 205 colon
# [26] = test system: SNB-75 CNS
# [27] = test system: RPMI-8226 leukemia
# [28] = test system: UACC-257 melanoma
# [29] = test system: 786-0 renal
# [30] = test system: MALME-3M melanoma
# [31] = test system: SK-OV-3 ovarian
# [32] = test system: HCT-15 colon
# [33] = test system: NCI/ADR-RES ovarian
# [34] = test system: TK-10 renal
# [35] = test system: SR leukemia
# [36] = test system: SF-295 CNS
# [37] = test system: SK-MEL-2 melanoma
# [38] = test system: HS 578T breast
# [39] = test system: SN12C renal
# [40] = test system: HOP-92 NSCLC
# [41] = test system: CCRF-CEM leukemia
# [42] = test system: NCI-H23 lung
# [43] = test system: NCI-H226 lung
# [44] = test system: DU-145 prostate
# [45] = test system: HT29 colon
# [46] = test system: SF-539 CNS
# [47] = test system: OVCAR-5 ovarian
# [48] = test system: PC-3 prostate
# [49] = test system: HCC-2998 colon
# [50] = test system: MCF7 breast
# [51] = test system: U251 CNS
# [52] = test system: OVCAR-4 ovarian
# [53] = test system: MOLT-4 leukemia
# [54] = test system: EKVX NSCLC
# [55] = test system: K-562 leukemia
compound,measurement,setting,value
Nc1ccc(-c2nc3ccc(Cc4ccc5nc(-c6ccc(N)cc6)[nH]c5c4)cc3[nH]2)cc1,GI50,[1],15.7 µM
same,TGI,[1],42.9 µM
same,GI50,[2],1.8 µM
same,TGI,[2],3.46 µM
same,GI50,[3],16.9 µM
same,TGI,[3],39.8 µM
same,GI50,[4],2.28 µM
same,TGI,[4],5.32 µM
same,GI50,[5],17.9 µM
same,TGI,[5],37.5 µM
same,GI50,[6],14.4 µM
same,TGI,[6],37.1 µM
same,GI50,[7],1.97 µM
same,TGI,[7],4.87 µM
same,GI50,[8],1.45 µM
same,TGI,[8],3.67 µM
same,GI50,[9],20.8 µM
same,TGI,[9],57.7 µM
same,GI50,[10],5.22 µM
same,TGI,[10],34.1 µM
same,GI50,[11],2.48 µM
same,TGI,[11],6.58 µM
same,GI50,[12],3.59 µM
same,TGI,[12],17.8 µM
same,GI50,[13],1.37 µM
same,TGI,[13],3.05 µM
same,GI50,[14],4.23 µM
same,TGI,[14],26.9 µM
same,GI50,[15],2.14 µM
same,TGI,[15],5.18 µM
same,GI50,[16],10.4 µM
same,TGI,[16],36.9 µM
same,GI50,[17],3.24 µM
same,TGI,[17],18.2 µM
same,GI50,[18],9.86 µM
same,TGI,[18],67.2 µM
same,GI50,[19],0.855 µM
same,TGI,[19],21.4 µM
same,GI50,[20],1.76 µM
same,TGI,[20],3.31 µM
same,GI50,[21],6.53 µM
same,TGI,[21],35 µM
same,GI50,[22],45.4 µM
same,TGI,[22],> 100 µM
same,GI50,[23],45.6 µM
same,TGI,[23],> 100 µM
same,GI50,[24],1.93 µM
same,TGI,[24],4.27 µM
same,GI50,[25],1.65 µM
same,TGI,[25],3.2 µM
same,GI50,[26],12.3 µM
same,TGI,[26],28.9 µM
same,GI50,[27],25.7 µM
same,TGI,[27],> 100 µM
same,GI50,[28],20.6 µM
same,TGI,[28],45.7 µM
same,GI50,[29],4.52 µM
same,TGI,[29],31.6 µM
same,GI50,[30],2.04 µM
same,TGI,[30],4.53 µM
same,GI50,[31],18.9 µM
same,TGI,[31],40.6 µM
same,GI50,[32],14.8 µM
same,TGI,[32],47.9 µM
same,GI50,[33],> 100 µM
same,TGI,[33],> 100 µM
same,GI50,[34],24.4 µM
same,TGI,[34],43.3 µM
same,GI50,[35],1.48 µM
same,TGI,[35],> 100 µM
same,GI50,[36],12.8 µM
same,TGI,[36],32.4 µM
same,GI50,[37],12.6 µM
same,TGI,[37],35.4 µM
same,GI50,[38],13 µM
same,TGI,[38],39.5 µM
same,GI50,[39],8.75 µM
same,TGI,[39],29 µM
same,GI50,[40],16.5 µM
same,TGI,[40],39 µM
same,GI50,[41],2.12 µM
same,TGI,[41],6.7 µM
same,GI50,[42],3.83 µM
same,TGI,[42],22.3 µM
same,GI50,[43],8.06 µM
same,TGI,[43],36.9 µM
same,GI50,[44],11.1 µM
same,TGI,[44],24.2 µM
same,GI50,[45],1.89 µM
same,TGI,[45],4.1 µM
same,GI50,[46],1.91 µM
same,TGI,[46],3.91 µM
same,GI50,[47],12 µM
same,TGI,[47],30 µM
same,GI50,[48],4.25 µM
same,TGI,[48],20.1 µM
same,GI50,[49],2.84 µM
same,TGI,[49],12.1 µM
COc1cc(/C=C/c2cc(/C=C/c3ccc(O)c(OC)c3)n(C(=O)Nc3ccc(C)cc3C)n2)ccc1O,GI50,[1],0.262 µM
same,TGI,[1],0.775 µM
same,GI50,[3],0.464 µM
same,TGI,[3],2.76 µM
same,GI50,[5],0.412 µM
same,TGI,[5],2.11 µM
same,GI50,[9],0.43 µM
same,TGI,[9],3.2 µM
same,GI50,[10],0.327 µM
same,TGI,[10],1.26 µM
same,GI50,[11],0.562 µM
same,TGI,[11],2.36 µM
same,GI50,[50],0.317 µM
same,TGI,[50],1.37 µM
same,GI50,[12],0.412 µM
same,TGI,[12],1.65 µM
same,GI50,[15],0.613 µM
same,TGI,[15],6.01 µM
same,GI50,[16],0.262 µM
same,TGI,[16],0.801 µM
same,GI50,[51],0.401 µM
same,TGI,[51],1.47 µM
same,GI50,[18],0.693 µM
same,TGI,[18],16.8 µM
same,GI50,[52],0.464 µM
same,TGI,[52],2.99 µM
same,GI50,[19],0.538 µM
same,TGI,[19],1.93 µM
same,GI50,[20],0.327 µM
same,TGI,[20],1.03 µM
same,GI50,[53],0.281 µM
same,TGI,[53],1.22 µM
same,GI50,[21],0.442 µM
same,TGI,[21],1.54 µM
same,GI50,[22],0.362 µM
same,TGI,[22],1.74 µM
same,GI50,[23],0.367 µM
same,TGI,[23],5.09 µM
same,GI50,[24],0.509 µM
same,TGI,[24],2.46 µM
same,GI50,[25],1.9 µM
same,TGI,[25],3.38 µM
same,GI50,[27],0.352 µM
same,TGI,[27],1.74 µM
same,GI50,[28],1.46 µM
same,TGI,[28],5.25 µM
same,GI50,[29],0.549 µM
same,TGI,[29],1.76 µM
same,GI50,[31],0.347 µM
same,TGI,[31],1.21 µM
same,GI50,[33],0.335 µM
same,TGI,[33],2.66 µM
same,GI50,[34],0.529 µM
same,TGI,[34],2.16 µM
same,GI50,[54],0.995 µM
same,TGI,[54],5.76 µM
same,GI50,[35],0.0445 µM
same,GI50,[38],0.295 µM
same,TGI,[38],> 100 µM
same,GI50,[40],0.576 µM
same,TGI,[40],3.71 µM
same,GI50,[41],0.232 µM
same,TGI,[41],> 100 µM
same,GI50,[42],0.275 µM
same,TGI,[42],1.25 µM
same,GI50,[43],0.389 µM
same,TGI,[43],2.1 µM
same,GI50,[44],0.387 µM
same,TGI,[44],1.5 µM
same,GI50,[55],0.292 µM
same,TGI,[55],1.17 µM
same,GI50,[45],0.903 µM
same,TGI,[45],3.59 µM
same,GI50,[47],1.51 µM
same,TGI,[47],6.85 µM
same,GI50,[48],0.379 µM
same,TGI,[48],5.01 µM
same,GI50,[49],0.738 µM
same,TGI,[49],4.26 µM
